The source of these data is PMC11822212, “High-throughput screening identifies Aurora kinase B as a critical therapeutic target for Merkel cell carcinoma” (Nature Communications, 2025).

The structures appear in SMILES notation. Where two headings read alike, the source gives them in different places.

Assay [1] relates to MCC13 cells (VN-MCC). Description: qHTS cell viability (CellTiter-Glo, 72 h; primary and follow-up small molecule screen). It counts as cell-based, human. Background: Quantitative high-throughput screening tests each substance at several concentrations.
Assay [2] relates to MCC26 cells (VN-MCC). The description is as above. The assay is classed as cell-based, human.
Assay [3] relates to UISO cells (VN-MCC). The description is as above. The assay is classed as cell-based, human.
In assay [4] the test system is WAGA cells (VP-MCC). The assay is described as above. The assay is classed as cell-based, human.
Assay [5] concerns MKL-1 cells (VP-MCC). Described as above. The assay is classed as cell-based, human.
For assay [6], the system named is MKL-2 cells (VP-MCC). The assay is described as above. It counts as cell-based, human.
In assay [7] the test system is HACAT cells. Description: qHTS cell viability (CellTiter-Glo, 72 h; primary screen), control cell line. The assay is classed as cell-based, human.
For assay [8], the system named is HEK293T cells. The description is as above. The assay is classed as cell-based, human.
Assay [9] concerns NIH-3T3 cells. The description is as above. The assay is classed as cell-based, mouse.
Assay [10] has as its system CRL-7250 cells. Described as above. It counts as cell-based.
For assay [11], the system named is MCC cell lines (WAGA, MKL-1, MKL-2, MCC13, MCC26, UISO). Description: qHTS cell viability, all six MCC cell lines as a group (mean AUC, MCC.avg). It counts as cell-based, human.
Assay [12] relates to VP-MCC cell lines (WAGA, MKL-1, MKL-2). Description: qHTS cell viability, VP-MCC cell lines as a group (mean AUC, VP.MCC.avg). It counts as cell-based, human.
Assay [13] relates to VN-MCC cell lines (MCC13, MCC26, UISO). Description: qHTS cell viability, VN-MCC cell lines as a group (mean AUC, VN.MCC.avg). The assay is classed as cell-based, human.
The subject of assay [14] is control cell lines (HACAT, HEK293T, CRL-7250, NIH-3T3). The assay is described as follows: qHTS cell viability, control cell lines as a group (mean AUC, Control.avg). The assay is classed as cell-based.
The subject of assay [15] is six MCC cell lines and four control cell lines. The assay is described as follows: qHTS cell viability, all 10 cell lines screened. It counts as cell-based.
Setting [16] is: MIPE library, 11-point DRC, sheet S2E.
Setting [17] is: MIPE library, 11-point DRC, control cell line, sheet S2E.

In the case of `C=CCC1([C@H](C)CCC)C(=O)NC(=O)NC1=O` [S-(-)-Secobarbital], in assay [1], the MCC13_AUC is given as 460.136. In addition, the MCC26_AUC in [2] turned out to be 414.278. Besides, in assay [3], the UISO_AUC was found to be 438.072. Further, the WAGA_AUC in [4] worked out at 434.137. For the same molecule, the MKL1_AUC in assay [5] was found to be 441.594. In addition, in assay [6], the MKL2_AUC is on record as 429.062. This molecule also yielded an HACAT_AUC in assay [7] of 491.817. In addition, the HEK293T_AUC in [8] amounted to 485.529. The molecule further registered an NIH3T3_AUC in assay [9] of 473.981. This molecule also displayed a CRL7250_AUC in assay [10] of 492.207. This molecule also came in with an MCC_Avg_AUC in assay [11] of 436.213. In assay [12], the Control-VP-MCC is on record as 50.9524 and the VP-MCC_Avg_AUC is 434.931. In assay [13], the Control-VN-MCC was 48.3879 and the VN-MCC_Avg_AUC is recorded as 437.495. For the same molecule, the Control_Avg_AUC in [14] was 485.883. This molecule also displayed a Control-MCC in [15] of 49.6701.

`Cc1c(C)n(Cc2ccc(-c3ccccc3C(=O)O)cc2)c2ccc(C(=O)N[C@@H](C)c3ccc([N+](=O)[O-])cc3)cc12` [SR1664]: the MCC13_AUC in assay [1] (setting [16]) was 475.759; in assay [1] (area under the dose-response curve, MCC13 cells, AUC<450 = reduced viability), 475.759. Also, the MCC26_AUC in assay [2] (setting [16]) amounted to 470.066; in [2] (area under the dose-response curve, MCC26 cells, AUC<450 = reduced viability) it was 470.066. Besides, the UISO_AUC in assay [3] (setting [16]) is reported as 472.261; in [3] (area under the dose-response curve, UISO cells, AUC<450 = reduced viability) it was 472.261. Besides, the WAGA_AUC was determined as 329.214 in assay [4] (setting [16]) and 329.214 in assay [4] (area under the dose-response curve, WAGA cells, AUC<450 = reduced viability). The MKL1_AUC in [5] (setting [16]) is given as 300.491; in assay [5] (area under the dose-response curve, MKL-1 cells, AUC<450 = reduced viability) it was 300.491. Besides, the MKL2_AUC in assay [6] (setting [16]) was 319.019; in assay [6] (area under the dose-response curve, MKL-2 cells, AUC<450 = reduced viability), 319.019. Besides, the HACAT_AUC in assay [7] (setting [17]) is on record as 479.075; in assay [7] (area under the dose-response curve, HACAT control cells, AUC<450 = reduced viability), 479.075. Further, the HEK293T_AUC in assay [8] (setting [17]) is given as 470.145; in [8] (area under the dose-response curve, HEK293T control cells, AUC<450 = reduced viability) it was 470.145. The NIH3T3_AUC was determined as 484.086 in assay [9] (setting [17]) and 484.086 in assay [9] (area under the dose-response curve, NIH3T3 control cells, AUC<450 = reduced viability). Further, the CRL7250_AUC in assay [10] (setting [17]) is recorded as 475.771; in [10] (area under the dose-response curve, CRL7250 control cells, AUC<450 = reduced viability) it was 475.77. This molecule came in with an MCC_Avg_AUC in assay [11] (MIPE library, mean AUC of six MCC cell lines, sheet S2E) of 394.468. In addition, the Control-VP-MCC in assay [12] (MIPE library, Control AUC minus VP-MCC AUC (therapeutic window), sheet S2E) turned out to be 161.027. Moreover, the VP-MCC_Avg_AUC in assay [12] (MIPE library, mean AUC of VP-MCC cell lines, sheet S2E) came to 316.242. Further, the Control-VN-MCC in assay [13] (MIPE library, Control AUC minus VN-MCC AUC (therapeutic window), sheet S2E) turned out to be 4.574. Further, the VN-MCC_Avg_AUC in assay [13] (MIPE library, mean AUC of VN-MCC cell lines, sheet S2E) was found to be 472.695. The Control_Avg_AUC in [14] (MIPE library, mean AUC of control cell lines, sheet S2E) was determined as 477.269. Moreover, the Control-MCC in [15] (MIPE library, Control AUC minus MCC AUC (therapeutic window), sheet S2E) is 82.8007.

Take `O=C(N/N=C/c1ccccc1O)c1ccncc1` [Salinazid]: the MCC13_AUC in assay [1] (NPC library, qHTS dose-response AUC, MCC13) is reported as 439.405. Further, the MCC26_AUC in [2] (NPC library, qHTS dose-response AUC, MCC26) is on record as 445.789. In [3] (NPC library, qHTS dose-response AUC, UISO), the UISO_AUC was determined as 339.128. Moreover, the WAGA_AUC in [4] (NPC library, qHTS dose-response AUC, WAGA) came to 408.656. Further, in [5] (NPC library, qHTS dose-response AUC, MKL1), the MKL1_AUC is 355.467. The MKL2_AUC in assay [6] (NPC library, qHTS dose-response AUC, MKL2) worked out at 340.216. The molecule also returned an HACAT_AUC in assay [7] (NPC library, qHTS dose-response AUC, HACAT control) of 455.974. This molecule also showed an HEK293T_AUC in [8] (NPC library, qHTS dose-response AUC, HEK293T control) of 458.621. In [9] (NPC library, qHTS dose-response AUC, NIH3T3 control), this molecule had an NIH3T3_AUC of 449.726. In addition, in assay [10] (NPC library, qHTS dose-response AUC, CRL7250 control), the CRL7250_AUC is given as 476.052. For the same molecule, the MCC_Avg_AUC in [11] (NPC library, mean AUC of all 6 MCC cell lines) was determined as 388.11; in assay [11] (NPC library, mean AUC of six MCC cell lines), 388.11. The Control-VP-MCC in assay [12] (Control AUC minus VP-MCC AUC) is given as 91.9801; in [12] (NPC library, therapeutic window: Control avg AUC minus VP-MCC avg AUC), 91.9801. This molecule also gave a VP-MCC_Avg_AUC in assay [12] (NPC library, mean AUC of VP-MCC cell lines) of 368.113. Further, the Control-VN-MCC was determined as 51.9858 in [13] (Control AUC minus VN-MCC AUC) and 51.9858 in [13] (NPC library, therapeutic window: Control avg AUC minus VN-MCC avg AUC). This molecule yielded a VN-MCC_Avg_AUC in assay [13] (NPC library, mean AUC of VN-MCC cell lines) of 408.107. In assay [14] (NPC library, mean AUC of control cell lines), this molecule gave a Control_Avg_AUC of 460.093. This molecule registered a Control-MCC in assay [15] (NPC library, therapeutic window: Control avg AUC minus MCC avg AUC) of 71.983.
